pIC50: −log10 of the molar value. Where a name gives a salt, the structure may show the parent alone. Read-outs that look alike come from different tables or passages of the source.
Tests used:
recombinant human PARP2 = recombinant human PARP2 (Homo sapiens, UniProt Q9UGN5); test: PARP2 fluorescence polarization binding assay; conditions: read-out: PARP2 % inh at 10 μM
[1] = system: DLD-1 wild-type colorectal adenocarcinoma cells; test: Cell viability assay (Cell Titer-Glo, 7 days), DLD-1 wild-type; type: cell-based; conditions: Homo sapiens, 168 h, DLD-1 wild-type cells, read-out: DLD-1 wild-type % inh at 10 μM
Text: (§1) In some embodiments, the biological assay measures the effects that compounds of the present disclosure may have on the viability of cells, e.g., the viability of cancer cells. In some embodiments, DLD-1 wild-type and DLD-1 BRCA2(−/−) colorectal adenocarcinoma cells, an isogenic pair of cell lines differing in the presence and absence, respectively, of both BRCA2 alleles, are used to measure the effect of the disclosed compounds on the viability of cancer cells. In some embodiments, the cells are harvested during the logarithmic growth period, counted, and seeded at a specified count in the wells of a 96- or 384-well cell culture plate. In some embodiments, after seeding, the cells are incubated, e.g., at 37° C., 5% CO2 overnight. In some embodiments, the cells are treated with compounds, e.g., with serially diluted test compounds at 8-11 concentrations within a desired concentration range, e.g., from 1 nM-10 μM, for the generation of dose-response curves. In some embodiments, the plate is further incubated, e.g., for another 3-7 days in a humidified incubator at 37° C. and 5% CO2. In some embodiments, cell viability is assessed by luminescence measurement after addition of Cell Titer-Glo reagent (Promega, Madison, Wis.) according to the manufacturer's instructions. In some embodiments, cell viability IC50 values are calculated using XLFit, equation 201: y=A+((B−A)/(1+((x/C)^D))), where A=bottom, B=top, C=IC50, and D=slope. In some embodiments, the effects of the test compounds on the viability of other cell lines such as MDA-MB-436, MDA-MB-231, SUM149PT, HCC1395, and UWB1.289 are determined in an analogous method.
(§2) Compounds of the present disclosure were tested for their effects on the viability of cancer cells. DLD-1 wild-type and DLD-1 BRCA2(−/−) colorectal adenocarcinoma cells, an isogenic pair of cell lines differing in the presence and absence, respectively, of both BRCA2 alleles, were used. The cells were harvested during the logarithmic growth period, counted, and seeded at 50 cells/well for DLD-1 wild-type and 200 cells/well for DLD-1 BRCA2(−/−) in a 384-well cell culture plate. After seeding, cells were incubated at 37° C., 5% CO2 overnight. Cells were treated with serially diluted test compounds at 10 concentrations (e.g., from 1.5 nM-30 μM) for generation of dose response curves, or at a single concentration. The plate was further incubated for another 7 days in a humidified incubator at 37° C. and 5% CO2. Cell viability was assessed by luminescence measurement after addition of Cell Titer-Glo reagent (Promega, Madison, Wis.) according to the manufacturer's instructions. Cell viability IC50 values were calculated using XLFit, equation 201. y=A+((B−A)/(1+((x/C)^D))), where A=bottom, B=top, C=IC50, and D=slope. IC50 values are shown in Table B and are presented in ranges, in which “+++”<300 nM, 300 nM≤“++”<3000 nM, and “+”≥3000 nM. Values for percent inhibition at 10 μM are also shown in Table B and are presented in ranges, in which “***”≥67%, 33%: “**”≤67%, and “*”<33%. Effects of the test compounds on the viability of other cell lines such as MDA-MB-436, MDA-MB-231, SUM149PT, HCC1395, and UWB1.289 are determined in an analogous method.

recombinant human PARP1 = recombinant human PARP1 (Homo sapiens, UniProt P09874); test: PARP1 fluorescence polarization binding assay; conditions: GST-tagged PARP1 20 nM, PARP1-FL probe 3 nM
Experimental: In some embodiments, the biological assay is described in the Examples herein. In some embodiments, the biological assay measures PARP-1 binding by way of fluorescence polarization measurements. In some embodiments, binding of a test compound to recombinant human PARP-1 reduces the amount of binding of a fluorescent probe, and consequently reduces the detected level of fluorescence polarization. In some test compound stock solutions are prepared in a solvent, e.g., DMSO, and are serially diluted into a range of concentrations, e.g., 15 concentrations, 14 concentrations, 13 concentrations, 12 concentrations, 11 concentrations, 10 concentrations, 9 concentrations, 8 concentrations, 7 concentrations, 6 concentrations, or 5 concentrations, by a dilution factor, e.g., a 10-fold dilution factor, a 9-fold dilution factor, an 8-fold dilution factor, a 7-fold dilution factor, a 6-fold dilution factor, a 5-fold dilution factor, a 4-fold dilution factor, a 3-fold dilution factor, or a 2-fold dilution factor. In some embodiments, the serial dilutions, e.g., 100 nL of serial dilution, 90 nL of serial dilution, 80 nL of serial dilution, 70 nL of serial dilution, 60 nL of serial dilution, 50 nL of serial dilution, 30 nL of serial dilution, 20 nL of serial dilution, or 10 nL of serial dilution, are added to a multi-welled plate, e.g., a 1536-well plate, a 384-well plate, or a 96-well plate. In some embodiments, PARP-1, e.g., GST-tagged PARP-1, is diluted in assay buffer, e.g., 50 μL of assay buffer, 40 μL of assay buffer, e.g., 30 μL of assay buffer, 20 μL of assay buffer, 10 μL of assay buffer, or 5 μL of assay buffer, and is added to the plate. In some embodiments, the plate is centrifuged, e.g., at 1000 rpm for 1 min, and incubated, e.g., incubated for 30 minutes at room temperature (RT). In some embodiments, a fluorescent probe, e.g., 10 μL of 6 nM PARP1-FL (TOCRIS, Cat #6461), is diluted in an assay buffer and is added to the plate. In some embodiments, the final concentrations of PARP-1 and fluorescent probe are 20 nM and 3 nM, respectively, in a total volume of 20 μL. In some embodiments, the plate is centrifuged, e.g., at 1000 rpm for 1 minute, and the assay plate is incubated, e.g., for 4 h at RT. In some embodiments, the samples in each well are read using a plate reader, e.g., an Envision instrument using excitation=480 nm, and emission wavelength=FITC FP-P pol 535 nm & FITC FP-S pol 535 nm). In some embodiments, percent inhibition is calculated from mP values using Inhibition (%)=[1−(mPc−mPL)/(mPH−mPL)]×100%, where mPc, mPL, and mPH are the mP values of test compound, Low controls, and High controls, respectively. In some embodiments, binding IC50 values are calculated using XLFit (equation 201: y=A+((B−A)/(1+((x/C)^D))), where A=bottom, B=top, C=IC50, and D=slope) with a floating top and bottom for curves.
Compounds of the present disclosure were tested in a PARP1 fluorescence polarization binding assay at Pharmaron (Beijing, P.R. China). In this biochemical assay, binding of test compound to recombinant human PARP1 reduces the amount of binding of a fluorescent probe, and consequently reduces the detected level of fluorescence polarization. Test compound stock solutions were prepared in DMSO and then serially diluted into 10 concentrations by 3-fold dilution in a 384-well plate using a TECAN EVO200. Alternatively, a single concentration was prepared. 60 nL of each dilution was transferred to the plate using an Echo550 (Labcyte), and then 10 μL 40 nM GST-tagged PARP1 (BPS Bioscience, Cat #80501), diluted in assay buffer (50 mM Tris pH 8.0, 0.001% Triton X-100, 10 mM MgCl2, 150 mM NaCl), was added to the plate. After a centrifugation at 1000 rpm for 1 min, the assay plate was incubated for 30 min at RT. 10 μL 6 nM PARP1-FL (TOCRIS, Cat #6461), diluted using assay buffer, was then added to the plate. The final concentrations of PARP1 and PARP1-FL were 20 nM and 3 nM, respectively, in a total volume of 20 μL. […]

[2] = system: DLD-1 BRCA2(−/−) colorectal adenocarcinoma cells; test: Cell viability assay (Cell Titer-Glo, 7 days), DLD-1 BRCA2(−/−); type: cell-based; conditions: Homo sapiens, 168 h, DLD-1 BRCA2(−/−) cells
Text: as §1, §2

[3] = percent inhibition at 10 μM, fluorescence polarization, GST-tagged PARP2 20 nM, PARP1-FL probe 3 nM

recombinant human PARP1, sequence (P09874 whole entry): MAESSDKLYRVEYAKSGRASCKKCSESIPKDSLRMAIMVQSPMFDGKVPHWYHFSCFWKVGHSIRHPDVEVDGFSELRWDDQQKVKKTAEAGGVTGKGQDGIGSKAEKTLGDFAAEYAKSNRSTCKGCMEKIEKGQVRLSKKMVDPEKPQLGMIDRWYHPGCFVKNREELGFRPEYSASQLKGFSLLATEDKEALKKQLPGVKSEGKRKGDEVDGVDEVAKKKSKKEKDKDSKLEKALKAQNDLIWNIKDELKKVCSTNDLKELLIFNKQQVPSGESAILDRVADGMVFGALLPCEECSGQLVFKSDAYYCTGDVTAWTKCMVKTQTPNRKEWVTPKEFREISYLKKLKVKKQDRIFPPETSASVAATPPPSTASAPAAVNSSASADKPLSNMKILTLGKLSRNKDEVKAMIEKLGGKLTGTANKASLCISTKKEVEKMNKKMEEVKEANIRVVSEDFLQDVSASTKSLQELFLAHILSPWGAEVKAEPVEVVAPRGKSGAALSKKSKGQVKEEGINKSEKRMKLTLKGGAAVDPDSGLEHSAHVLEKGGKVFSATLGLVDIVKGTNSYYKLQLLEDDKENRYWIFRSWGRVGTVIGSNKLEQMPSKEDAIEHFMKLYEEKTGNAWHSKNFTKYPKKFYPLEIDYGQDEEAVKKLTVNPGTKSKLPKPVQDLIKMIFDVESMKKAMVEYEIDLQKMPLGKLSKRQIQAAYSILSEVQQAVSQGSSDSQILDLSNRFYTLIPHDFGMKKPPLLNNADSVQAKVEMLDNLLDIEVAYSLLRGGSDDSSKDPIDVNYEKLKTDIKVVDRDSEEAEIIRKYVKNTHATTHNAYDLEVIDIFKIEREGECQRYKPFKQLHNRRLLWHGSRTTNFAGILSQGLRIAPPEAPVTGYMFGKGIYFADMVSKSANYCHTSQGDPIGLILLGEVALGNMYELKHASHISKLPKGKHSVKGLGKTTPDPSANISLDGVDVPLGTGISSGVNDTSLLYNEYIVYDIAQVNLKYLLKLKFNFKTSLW
recombinant human PARP2, sequence (Q9UGN5 whole entry): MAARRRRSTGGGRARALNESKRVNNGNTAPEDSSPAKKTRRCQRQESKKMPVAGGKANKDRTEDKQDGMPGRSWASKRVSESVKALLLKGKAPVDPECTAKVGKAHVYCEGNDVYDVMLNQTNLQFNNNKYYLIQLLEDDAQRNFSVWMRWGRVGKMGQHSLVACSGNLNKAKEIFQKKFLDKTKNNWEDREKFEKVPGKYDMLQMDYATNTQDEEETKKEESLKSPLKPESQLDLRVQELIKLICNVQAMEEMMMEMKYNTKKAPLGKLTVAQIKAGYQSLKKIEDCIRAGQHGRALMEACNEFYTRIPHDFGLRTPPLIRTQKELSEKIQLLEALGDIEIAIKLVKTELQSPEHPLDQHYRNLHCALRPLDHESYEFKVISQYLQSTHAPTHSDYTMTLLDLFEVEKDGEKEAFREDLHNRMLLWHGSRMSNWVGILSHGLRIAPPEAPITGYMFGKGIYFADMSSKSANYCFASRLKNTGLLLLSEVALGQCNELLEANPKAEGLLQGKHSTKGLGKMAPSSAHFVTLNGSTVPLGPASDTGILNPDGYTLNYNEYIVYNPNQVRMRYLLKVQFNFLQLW

inhibition at 10 µM (recombinant human PARP2; [3]) [%] | pIC50 (recombinant human PARP1) | pIC50 [2] | SMILES | inhibition at 10 µM [1] [%] | inhibition at 10 µM (recombinant human PARP2) [%]
< 33 | > 7.00 | > 6.52 | CCNC(=O)Nc1cc(CN2CCN(c3ccc(C(=O)NC)nc3F)CC2)ccn1 [Compound 9, 5-(4-((2-(3-ethylureido)pyridin-4-yl)methyl)piperazin-1-yl)-6-fluoro-N-methylpicolinamide] | < 33 | –
33 to 67 | > 7.00 | 5.52 to 6.52 | CCNC(=O)Nc1cc(CN2CCN(c3cnc4c(NC)nccc4c3)CC2)ccn1 [Compound 257, 1-ethyl-3-(4-((4-(8-(methylamino)-1,7-naphthyridin-3-yl)piperazin-1-yl)methyl)pyridin-2-yl)urea] | < 33 | –
< 33 | > 7.00 | > 6.52 | CCNC(=O)Nc1cc(CN2CCN(c3ccc(-n4cccn4)nc3C)CC2)ccn1 [Compound 24, 1-ethyl-3-(4-((4-(2-methyl-6-(1H-pyrazol-1-yl)pyridin-3-yl)piperazin-1-yl)methyl)pyridin-2-yl)urea] | < 33 | –
< 33 | > 7.00 | > 6.52 | CCNC(=O)Nc1nccc(CN2CCN(c3ccc(C#N)cn3)CC2)c1F [Compound 268, 1-(4-((4-(5-cyanopyridin-2-yl)piperazin-1-yl)methyl)-3-fluoropyridin-2-yl)-3-ethylurea] | < 33 | –

The next lines start with the compound.

SMILES | inhibition at 10 µM (recombinant human PARP2; [3]) [%] | pIC50 (recombinant human PARP1) | pIC50 [2] | inhibition at 10 µM [1] [%] | inhibition at 10 µM (recombinant human PARP2) [%]
CCNC(=O)Nc1cc(CN2CCN(c3ccc(C#N)cn3)CC2)ncn1 [Compound 275, 1-(6-((4-(5-cyanopyridin-2-yl)piperazin-1-yl)methyl)pyrimidin-4-yl)-3-ethylurea] | < 33 | > 7.00 | > 6.52 | < 33 | –
CCNC(=O)Nc1cc(CN2CCN(c3ccc(-c4ncc[nH]4)nc3C)CC2)ccn1 [Compound 272, 1-(4-((4-(6-(1H-imidazol-2-yl)-2-methylpyridin-3-yl)piperazin-1-yl)methyl)pyridin-2-yl)-3-ethylurea formate] | – | > 7.00 | > 6.52 | < 33 | < 33
CNC(=O)c1ccc(N2CCN(Cc3ccnc(NC(=O)NC4CC4)c3)CC2)c(C)n1 [Compound 46, 5-(4-((2-(3-cyclopropylureido)pyridin-4-yl)methyl)piperazin-1-yl)-N,6-dimethylpicolinamide] | < 33 | > 7.00 | > 6.52 | < 33 | –
CNC(=O)c1ccc(N2CCN(Cc3ccnc(NC(=O)NCC(F)F)c3)CC2)c(C)n1 [Compound 262, 5-(4-((2-(3-(2,2-difluoroethyl)ureido)pyridin-4-yl)methyl)piperazin-1-yl)-N,6-dimethylpicolinamide] | < 33 | > 7.00 | > 6.52 | < 33 | –
CCNC(=O)Nc1nccc(CN2CCN(c3ccc(C(=O)NC)nc3C)CC2)c1C [Compound 260, 5-(4-((2-(3-ethylureido)-3-methylpyridin-4-yl)methyl)piperazin-1-yl)-N,6-dimethylpicolinamide hemiformate] | – | > 7.00 | 5.52 to 6.52 | < 33 | < 33
CCNC(=O)Nc1cc(CN2CCN(c3ccc(C(=O)NC)nc3F)CC2)ncn1 [Compound 229, 5-(4-((6-(3-ethylureido)pyrimidin-4-yl)methyl)piperazin-1-yl)-6-fluoro-N-methylpicolinamide formate] | – | > 7.00 | > 6.52 | < 33 | < 33
CCNC(=O)Nc1cc(CN2CCN(c3ccc(C(=O)NC)nc3C)CC2)ccn1 [Compound 13, 5-(4-((2-(3-ethylureido)pyridin-4-yl)methyl)piperazin-1-yl)-N,6-dimethylpicolinamide formate] | – | > 7.00 | > 6.52 | < 33 | < 33
